Measurements published in patent publication US20250115613A1, “DIARYL COMPOUND AS TUBULIN/SRC DUAL TARGET INHIBITOR” (Wuhan Humanwell Innovative Drug Research and Development …, priority 2022, published 2025).
≈ marks a conversion by molar mass, not a printed value. Like-named read-outs stand apart in the source and are kept apart here.

How the values were obtained:
[1] = Pharmacokinetic test in mice; assay type: in vivo; settings: mouse, plasma
Protocol: For the pharmacokinetic test in mice, 3 male ICR mice, 20 to 25 g, were used, fasted overnight, and administered by tail vein injection (1 mg/kg or 5 mg/kg). Blood was collected before the administration, and at 15 min, 30 min, 1 hour, 2 hours, 4 hours, 8 hours, and 24 hours after the administration. Another 3 mice were taken and administered by oral gavage (5 mg/kg), and blood was collected before the administration, and at 15 min, 30 min, 1 hour, 2 hours, 4 hours, 8 hours, and 24 hours after the administration. Blood samples were centrifuged at 6800 g at 2 to 8° C. for 6 min, and plasma was collected and stored at −80° C. The plasma at each time point was taken and added with an acetonitrile solution containing internal standard in 3 to 5 times the amount. The mixture was vortexed and mixed for 1 min, and centrifuged at 13,000 rpm at 4° C. for 10 min. The supernatant was collected, added with water in 3 times the amount, and mixed. An appropriate amount of the mixture was taken for LC-MS/MS analysis. The main pharmacokinetic parameters were analyzed using WinNonlin 7.0 software with non-compartmental model.

[2] = system: A-431 cells; assay: Inhibition of A-431 cell proliferation; assay type: cell-based; settings: Homo sapiens, 96 h, incubated 4 days
Protocol: (§1) Human cutaneous squamous cell carcinoma cell A-431 (ATCC, CRL-1555) and actinic keratosis patient-derived cell HT 297.T (ATCC, CRL-7782) proliferation assays were used to detect the inhibitory effect of small molecular compounds on cell proliferation.
(§2) A-431 cells and HT 297.T cells were cultured in DMEM medium containing 10% fetal bovine serum and grown at 37° C. in a 5% CO2 incubator. Cells on logarithmic phase were seeded into a 96-well cell culture plate at 1000 cells/well, 100 μL per well, and then cultured overnight at 37° C. in a 5% CO2 incubator. The next day, 100 μL of gradient-diluted 2× test compound solution was added to each well, with DMSO serving as a positive control, and 10 μM staurosporine (Aladdin, S102392) was set as a negative control group. After the addition of the compounds, the culture plate was incubated for another 4 days at 37° C. in a 5% CO2 incubator. After incubation, the Steady-Glo® luciferase assay system (Promega, G9243) was used according to the supplier's instructions to measure the fluorescence signal value on the Envision 2104 Multilabel Reader. The inhibition rate was calculated by the following formula, then the curve was plotted with the Log value of the inhibitor concentration as the X-axis and the inhibition rate as the Y-axis, and the IC50 was calculated using Graphpad 8.0.
(§3) Inhibition %=(positive control group signal−test well signal)/(positive control group signal−negative control group signal)*100

[3] = system: HT 297.T cells; assay: Inhibition of HT 297.T cell proliferation; assay type: cell-based; settings: Homo sapiens, 96 h, incubated 4 days
Protocol: as §1, §2, §3

[4] = Human liver microsome stability test; assay type: in vitro ADME; settings: human liver microsomes (Corning), NADPH, 37° C.
Protocol: The human liver microsome stability test was performed by incubating the compound and human liver microsomes in vitro. First, the compound to be tested was prepared as a 10 mM stock solution in DMSO solvent, and then the compound was diluted to 0.5 mM with acetonitrile. Human liver microsomes (Corning) were diluted with PBS into a microsome/buffer solution, and the solution was used to dilute 0.5 mM compound into a working solution, in which the concentration of the compound was 1.5 μM, and the concentration of human liver microsomes was 0.75 mg/mL. A deep-well plate was taken, 30 μL of the working solution was added per well, and then 15 μL of pre-heated 6 mM NADPH solution was added thereto to initiate a reaction, and the reaction was incubated at 37° C. At 0 min, 5 min, 15 min, 30 min, and 45 min of the incubation, 135 μL of acetonitrile was added to the corresponding wells to terminate the reaction. After the reaction was terminated with acetonitrile at the last time point of 45 min, the deep-well plate was vortexed and shaken for 10 min (600 rpm), and then centrifuged for 15 min. After centrifugation, the supernatant was collected, and added with purified water in a ratio of 1:1 to perform LC-MS/MS detection. A ratio of a peak area of compound to a peak area of internal standard at each time point was obtained, and the peak area ratios of the compound at 5 min, 15 min, 30 min, and 45 min were compared with the peak area ratio at 0 min to calculate the remaining percentage of the compound at each time point. T1/2 was calculated by using Graphpad 5 software.

[5] = Thermodynamic solubility test; assay type: physicochemical; settings: thermodynamic from solid
Protocol: Phosphate buffer saline (PBS) with a pH of 7.4, FeSSIF solution with a pH of 6.5, and FaSSGF solution with a pH of 1.6 were prepared. The compound was accurately weighed and added to prepared phosphate buffer saline with a pH of 7.4, FeSSIF solution with a pH of 6.5, and FaSSGF solution with a pH of 1.6 to prepare into a solution with a concentration of 4 mg/mL. The solution was shaken at a speed of 1000 rpm for 1 hour, and then incubated overnight at room temperature. The incubated solution was centrifuged at 12,000 rpm for 10 minutes to remove undissolved particles, and the supernatant was transferred to a new centrifuge tube. After the supernatant was appropriately diluted, an acetonitrile solution containing internal standard was added, and a standard curve prepared with the same matrix was used for quantification.

[6] = system: tubulin monomer; assay: Inhibition test of tubulin monomer polymerization (Tubulin polymerization assay kit); assay type: biochemical; settings: maximum fluorescence signal of polymerization curve; 5 μL of 12.5 μM compound solution; 37° C.; higher value = lower inhibitory efficiency
Protocol: Tubulin polymerization assay kit (cytoskeleton, Cat. #BK011P) was used to conduct the compound inhibition test of tubulin monomer polymerization.
Before the test, the 96-well plate (Corning Costar, Cat. #3686) supplied with the kit was first placed in a microplate reader (MD, SpectraMax M5) and heated to 37° C., maintained for 10 minutes. The 96-well plate was then removed, and 5 μL of 12.5 μM compound solution or blank solution was added thereto. The 96-well plate was then placed back into the microplate reader and incubated at 37° C. for 1 minute to heat the compound solution to 37° C. The 96-well plate was removed and 50 μL of reaction mixture prepared according to the supplier's instructions was quickly added to each well, completing the sample addition within 1 minute to avoid the formation of bubbles. The 96-well plate was then immediately placed back into the microplate reader, shaken for 5 seconds, and using the Kinetic mode, continuous detection was carried out at 37° C. for 30 to 60 minutes under the conditions of excitation light at 360 nm and emission light at 420 nm, with detection every 30 seconds. Taking the detection time as the X-axis and the fluorescence signal value as the Y-axis, the tubulin monomer polymerization curve was obtained. As shown in FIG. 1 and Table 1, the larger the Vmax value and the higher the maximum fluorescence signal value of the polymerization curve, the lower the inhibitory efficiency of the compound.

[7] = male ICR mice, intravenous injection 1 mg/kg
[8] = male ICR mice, intravenous injection 5 mg/kg
[9] = male, ICR, mice, oral gavage 5 mg/kg
[10] = FeSSIF solution, FeSSIF pH 6.5, incubated overnight at room temperature, read-out: Solubility FeSSIF (pH 6.5)
[11] = phosphate buffer saline (PBS), aqueous buffer, PBS pH 7.4, incubated overnight at room temperature, read-out: Solubility PBS (pH 7.4)

SMILES	IC50 [2] [nM]	AUC(0-t) [1, 8] [ng·h/mL]	clearance [1, 8] [mL/min/kg]	further results
O=C(Cc1ccc(-c2ccc(OCCN3CCS(=O)(=O)CC3)cc2)cn1)NCc1ccccc1 [Compound I-3, N-benzyl-2-(5-(4-(2-(1,1-dioxidothiomorpholino)ethoxy)phenyl)pyridin-2-yl)acetamide]	14.3			
O=C(Cc1ccc(-c2ccc(OCCN3CC4(COC4)C3)cc2F)cn1)NCc1ccccc1 [Compound I-4, 2-(5-(4-(2-(2-oxa-6-azaspiro[3.3]heptan-6-yl)ethoxy)-2-fluorophenyl)pyridin-2-yl)-N-benzylacetamide]	8.67			IC50 [3]: 21.9 nM; half-life at 1 μM [4]: 47.5 min
Cc1cc(OCCN2CC3(COC3)C2)ccc1-c1ccc(CC(=O)NCc2ccccc2)nc1 [Compound I-5, 2-(5-(4-(2-(2-oxa-6-azaspiro[3.3]heptan-6-yl)ethoxy)-2-methylphenyl)pyridin-2-yl)-N-benzylacetamide]	16.3	2630	32.7	
O=C(Cc1ccc(-c2ccc(OCCN3CC4(C3)CS(=O)(=O)C4)cc2)cn1)NCc1ccccc1 [Compound I-18, N-benzyl-2-(5-(4-(2-(2,2-dioxido-2-thia-6-azaspiro[3.3]heptan-6-yl)ethoxy)phenyl)pyridin-2-yl)acetamide]	22.3			
O=C(Cc1ccc(-c2ccc(OCCNC3CN(C(=O)CC4CC4)C3)cc2)cn1)NCc1ccccc1 [Compound I-26, N-benzyl-2-(5-(4-(2-((1-(2-cyclopropylacetyl)azetidin-3-yl)amino)ethoxy)phenyl)pyridin-2-yl)acetamide]	13.7			half-life at 1 μM [4]: 42.8 min; solubility [5, 10]: 480 µg/mL (≈ 962 µM); solubility [5, 11]: 22.4 µg/mL (≈ 45 µM); Maximum signal value [6]: 408
Cc1cc(OCCN2C[C@H]3COC[C@H]3C2)cc(C)c1-c1ccc(CC(=O)NCc2ccccc2)nc1 [Compound I-29, N-benzyl-2-(5-(2,6-dimethyl-4-(2-((3aR,6aS)-tetrahydro-1H-furo[3,4-c]pyrrol-5(3H)-yl)ethoxy)phenyl)pyridin-2-yl)acetamide]	45.1			
Cc1cc(OCCN2C[C@H]3COC[C@H]3C2)ccc1-c1ccc(CC(=O)NCc2ccccc2F)nc1 [Compound I-33, N-(2-fluorobenzyl)-2-(5-(2-methyl-4-(2-((3aR,6aS)-tetrahydro-1H-furo[3,4-c]pyrrol-5(3H)-yl)ethoxy)phenyl)pyridin-2-yl)acetamide]	49.4			
O=C(Cc1ccc(-c2ccc(OCCN3C[C@H]4COC[C@H]4C3)cc2Cl)cn1)NCc1ccccc1F [Compound I-34, 2-(5-(2-chloro-4-(2-((3aR,6aS)-tetrahydro-1H-furo[3,4-c]pyrrol-5(3H)-yl)ethoxy)phenyl)pyridin-2-yl)-N-(2-fluorobenzyl)acetamide]	14.8			
O=C(Cc1ccc(-c2ccc(OCCN3CCOCC3)cc2)cn1)NCc1ccccc1 [Control compound I, Tirbanibulin, reference compound]		5250	15.8	

Continued by falling IC50 [2], values first:

IC50 [2] [nM]	AUC(0-t) [1, 8] [ng·h/mL]	clearance [1, 8] [mL/min/kg]	SMILES	further results
11.6			O=C(Cc1ccc(-c2ccc(OCCN3C[C@H]4COC[C@H]4C3)cc2F)cn1)NCc1ccccc1 [Compound I-1, N-benzyl-2-(5-(2-fluoro-4-(2-((3aR,6aS)-tetrahydro-1H-furo[3,4-c]pyrrol-5(3H)-yl)ethoxy)phenyl)pyridin-2-yl)acetamide]	AUC(0-t) [1, 7]: 299 ng·h/mL; clearance [1, 7]: 47.7 mL/min/kg
10.9			C[C@@H]1COCCN1CCOc1ccc(-c2ccc(CC(=O)NCc3ccccc3F)nc2)c(F)c1 [Compound I-31, (R)-2-(5-(2-fluoro-4-(2-(3-methylmorpholino)ethoxy)phenyl)pyridin-2-yl)-N-(2-fluorobenzyl)acetamide]	
9.22			C[C@H]1COCCN1CCOc1ccc(-c2ccc(CC(=O)NCc3ccccc3F)nc2)c(F)c1 [Compound I-32, (S)-2-(5-(2-fluoro-4-(2-(3-methylmorpholino)ethoxy)phenyl)pyridin-2-yl)-N-(2-fluorobenzyl)acetamide]	
9.12	852	97.2	O=C(Cc1ccc(-c2ccc(OCCN3C[C@H]4COC[C@H]4C3)cc2Cl)cn1)NCc1ccccc1 [Compound I-30, N-benzyl-2-(5-(2-chloro-4-(2-((3aR,6aS)-tetrahydro-1H-furo[3,4-c]pyrrol-5(3H)-yl)ethoxy)phenyl)pyridin-2-yl)acetamide]	half-life at 1 μM [4]: 10.7 min; AUC(0-t) [1, 9]: 508 ng·h/mL; Cmax [1, 9]: 364 ng/mL
6.74	2520	33.2	C[C@H]1COCCN1CCOc1ccc(-c2ccc(CC(=O)NCc3ccccc3)nc2)c(F)c1 [Compound I-24A, (S)—N-benzyl-2-(5-(2-fluoro-4-(2-(3-methylmorpholino)ethoxy)phenyl)pyridin-2-yl)acetamide]	IC50 [3]: 8.13 nM; AUC(0-t) [1, 9]: 1090 ng·h/mL; Cmax [1, 9]: 1190 ng/mL
6.47	2780	30.7	C[C@@H]1COCCN1CCOc1ccc(-c2ccc(CC(=O)NCc3ccccc3)nc2)c(F)c1 [Compound I-24B, (R)—N-benzyl-2-(5-(2-fluoro-4-(2-(3-methylmorpholino)ethoxy)phenyl)pyridin-2-yl)acetamide]	IC50 [3]: 8.51 nM; half-life at 1 μM [4]: 13.9 min; AUC(0-t) [1, 9]: 1420 ng·h/mL; Cmax [1, 9]: 1230 ng/mL; solubility [5, 10]: 69.8 µg/mL (≈ 150 µM); solubility [5, 11]: 11.3 µg/mL (≈ 24.4 µM); Maximum signal value [6]: 266
3.1			N#Cc1cc(OCCN2CCOCC2)ccc1-c1ccc(CC(=O)NCc2ccccc2)nc1 [Compound I-27, N-benzyl-2-(5-(2-cyano-4-(2-morpholinoethoxy)phenyl)pyridin-2-yl)acetamide]	solubility [5, 10]: 833 µg/mL (≈ 1830 µM); solubility [5, 11]: 85.7 µg/mL (≈ 188 µM); Maximum signal value [6]: 0
